According to patent US20060058398A1, “Medicinal compositions containing vitamin k's as nerve growth factor potentiator and utilization thereof” (Hisamitsu Pharmaceutical Co., Inc., priority 2002, published 2006):
Like-named read-outs stand apart in the source and are kept apart here.

Key:
Type in all cases: cell-based
PCD12 cells [1] = test: Effect of each inhibitor on neurite elongation potentiated by vitamin K's; settings: 10 μM PD98059 pretreatment, 48 hours incubation (FIG. 4)
Method: In order to study the action mechanism of vitamin K's, influence of MAPK kinase inhibitor (PD98059), protein kinase A (PKA) inhibitor, and protein kinase C (PKC) inhibitor (chelerythrine chloride) on the effects for potentiating neurite elongation of vitamin K's in PCD12 cells were studied. Pre-incubation of cells was carried out for 1 hour in the presence or in the absence of the inhibitor before treatment of NGF or vitamin K compound. After 48 hours of incubation, the ratio of cells having neurites was examined.

PCD12 cells [2] = test system: PCD12 cells
Method: Cells (PCD12 cells) were harvested and plated on a complete medium of collagen-coating tissue incubation dish in the density of 1.3×10^4 cells/cm^2. After 24 hours, NGF (0-50 ng/ml) and 100 μg/ml (the maximum concentration wherein toxicity against PCD12 cells is not observed) of vitamin K1 or vitamin K2 (n=4) were added to the cells.

PCD12 cells [3] = test: Bioassay for neurite elongation (potentiation of NGF activity); settings: for number of cells having neurites (morphological change): 100 μg/ml together with NGF (10 ng/ml) (FIG. 3); for effect of potentiating neurite elongation compared with the negative control group added with NGF 10 ng/ml: 100 μg/ml vitamin K, 48 hours incubation, ratio of cells having neurites (FIG. 1); for effect of potentiating neurite elongation in PCD12 cells: 100 μg/ml, in the presence of low dose of NGF (0-50 ng/ml) (FIG. 1)
Method: Cells (PCD12 cells) were harvested and plated on a complete medium of collagen-coating tissue incubation dish in the density of 1.3×10^4 cells/cm^2. […] After 48 hours of incubation, the ratio of cells having neurites was examined using a phase-contrast microscope under ×200 magnification. […] Each measurement in the data is the mean value calculated from examining random 6 […] duplicate experiments, whereby at least 100 cells/point was counted for calculation.

Molecule | inhibition of the potentiation of vitamin K's (PCD12 cells [1]) | maximum concentration wherein toxicity against PCD12 cells is not observed (PCD12 cells [2]; rat) [µg/mL] | number of cells having neurites (morphological change) (PCD12 cells [3]) | effect of potentiating neurite elongation compared with the negative control group added with NGF 10 ng/ml (PCD12 cells [3]) | effect of potentiating neurite elongation in PCD12 cells (PCD12 cells [3]) | maximum concentration wherein toxicity against PCD12 cells is not observed (PCD12 cells [2]) [µg/mL]
COc1cccc(-c2cc(=O)c3ccccc3o2)c1N [PD98059] | almost completely inhibited | – | – | – | – | –
CC1=C(C/C=C(\C)CCC[C@H](C)CCC[C@H](C)CCCC(C)C)C(=O)c2ccccc2C1=O [vitamin K1, phylloquinone] | – | 100 | remarkably increased | about 1.8 times | confirmed | –
menaquinone [vitamin K2] | – | – | remarkably increased | about 2.4 times | confirmed | 100
